Experimental data from US20210052771A1, “NANOPARTICULATE MINERALIZED COLLAGEN GLYCOSAMINOGLYCAN SCAFFOLD WITH AN ANTI-RESORPTION FACTOR” (THE REGENTS OF THE UNIVERSITY OF CALIFORNIA, priority 2018, published 2021).

Columns and labels:
[1] = test system: canonical BMP receptor signaling pathway; assay: Western blot of hMSCs on Col-GAG and MC-GAG with DMH1; type: cell-based, human; conditions: 50 μM
Method: (§1) Osteogenic differentiation of hMSCs on Col-GAG and MC-GAG: 3×10^5 hMSCs were seeded onto 8 mm discs of CG-GAG and MC-GAG scaffolds in proliferation media. 24 h after seeding, media was switched to osteogenic differentiation media consisting of 10 mM β-glycerophosphate, 50 μg/mL ascorbic acid, and 0.1 μM dexamethasone. For inhibitor studies, scaffolds were treated or untreated with dorsomorphin homologue 1 (DMH1; Sigma-Aldrich) or PD98059 (Cell Signaling Technologies, Beverly, Mass.) separately, all at a concentration of 50 μM. Fresh DMH1 and PD98059 were added to each media change every 3 days.
(§2) Western blot: Lysates were prepared from scaffolds at 0, 4, 14, and 24 days of culture using SDS sample buffer and equal amounts were subjected to 4-20% SDS-PAGE (Bio-Rad, Hercules, Calif.). Western blot analysis was carried out with antibodies against OPG, RANKL, phosphorylated small mothers against decapentaplegic 1/5 (p-Smad1/5), total Smad5, phosphorylated extracellular regulated kinase 1/2 (p-ERK1/2), total ERK1/2, and (3-actin followed by 1:4000 dilutions of HRP-conjugated IgG antibodies (Bio-Rad, Hercules, Calif.) and an enhanced chemiluminescent substrate (Thermo Scientific, Rockford, Ill.). For detection of p-Smad1/5 and total Smad5, 10 μg of lysate was loaded per lane. For detection of OPG, RANKL, p-ERK1/2, total ERK1/2, and β-actin, 20 μg of lysate was loaded per lane. All antibodies were obtained from Cell Signaling Technologies (Beverly, Mass.) with the exception of RANKL, OPG and β-actin antibodies which were obtained from Santa Cruz Biotechnology (Santa Cruz, Calif.). Imaging analysis was carried out using ImageJ (NIH, Bethesda, Md.).

[2] = test system: MEK1/ERK1/2 signaling pathway; assay: Western blot of hMSCs on Col-GAG and MC-GAG with PD98059; type: cell-based, human; conditions: 50 μM
Method: as §1, §2

[3] = all timepoints, either material

Row | Structure (SMILES) | total Smad5, total ERK1/2, RANKL, or actin [1] | phosphorylated ERK1/2 ([1]; MC-GAG at day 4) | phosphorylation of Smad1/5 [1, 3] | OPG expression ([1]; both Col-GAG and MC-GAG, particularly day 14) | phosphorylated Smad1/5, total Smad5, total ERK1/2, or actin [2] | OPG protein expression ([2]; Col-GAG) | RANKL expression ([2]; Col-GAG) | OPG protein expression ([2]; MC-GAG, all timepoints) | RANKL expression ([2]; MC-GAG, particularly day 24) | phosphorylated ERK1/2 [2, 3]
1 | CC(C)Oc1ccc(-c2cnc3c(-c4ccnc5ccccc45)cnn3c2)cc1 [DMH1, dorsomorphin homologue 1] | No differences | small elevation | partially decreased | increased | – | – | – | – | – | –
2 | COc1cccc(-c2cc(=O)c3ccccc3o2)c1N [PD98059] | – | – | – | – | no effects | no differences | no differences | decreased | downregulated | decreased
